Experiments:
[1] = tested on: homocysteine, cystathionine, cysteine; assay: Pharmacodynamics after a single dose of PEGylated htCBS C15S in HO mice; assay type: in vivo
Procedure: Plasma metabolites homocysteine, cystathionine and cysteine were determined by stable-isotope-dilution liquid chromatography mass spectrometry as previously described in (Allen et al., 1993, Metabolism, 42: 1448-1460). Measurements of total non-protein bound homocysteine and other aminothiols as well as of amino acids in tissue were performed as described in (Maclean et al., 2010b. Mol. Genet. Metab. 101, 153-162). Metabolites were determined by stable-isotope-dilution liquid chromatography mass spectrometry.
For 20NHS PEG-htCBS C15S, HO mice were administered SQ a dose of 5, 10 or 15 mg/kg dose or were administered IV a dose of 10 mg/kg. For 400MA-htCBS C15S, HO mice received a single dose of 10 mg/kg either SC or IV of one of the three forms: (i) a mixture of all species, where no separation of individual forms has been attempted (mix), (ii) a homoPEGylated specie (Peak 1), and (iii) a hetero/hemiPEGylated species (Peak 2).
Both male and female HO mice were used in this example, and each group contained 3 to 4 mice. Two groups of mice designated “A” and “B” were used for each route of administration to minimize the blood volume taken from any one mouse. For SC administration, blood was collected from group A at 0.5, 3, 24, and 72 hours post-injection and from group B at 1, 6, 48, and 96 hours post-injection. […]

[2] = tested on: KO mice; assay: Liver light and electron microscopy of treated KO mice; assay type: in vivo, mouse; conditions: 7.5 mg/kg SC 3x/week from 2 days of age, day 17-19
Procedure: The PBS-injected or PEGylated htCBS conjugate, such as 20NHS PEG-htCBS C15S, treated KO mice were sacrificed on day 17-19 and liver samples were processed for histological analysis by optical microscopy. The histological assessment was carried out in a blinded fashion. Livers were removed and were fixed for 24 hours with 4% paraformaldehyde in PBS (pH 7.4). Tissue blocks for histology were trimmed, dehydrated with an ethanol series followed by acetone, acetone-xylene mixture, and xylene, then embedded in paraffin. In parallel, small tissue blocks (around 4 mm×2 mm) fixed with paraformaldehyde were rapidly frozen in petrol ether cooled with dry ice, and stored at −50° C. for detection of apolar lipids. Paraffin sections 4 μm thick were deparaffinized in xylene and after isopropyl alcohol step rehydrated with ethanol (96%, 70%, 60%). Tissue sections were stained with hematoxylin and eosin (H&E) to evaluate histopathological changes. Masson trichrome staining was performed for detection of fibrosis. Steatosis was verified using Oil Red O staining for detection of apolar lipids in fixed-frozen sections that was 10 μm thick and cut with a Leica Cryomicrotome (CM 1850). The sections were viewed and photographed with a Nikon light microscope (E800) equipped with Olympus digital camera (DP70). […]

[3] = tested on: I278T mice; assay: Eye defects (ciliary zonule) in I278T mice; assay type: in vivo, mouse; conditions: 7.5 mg/kg SC 3x/week from 2 days to 4 months of age
Procedure: Mice were subjected to perfusion fixation with 4% paraformaldehyde in 1×PBS pH 7.4 (4% PFA) to preserve the walls of the eye globe. Eyes were carefully surgically removed, submerged into 4% PFA and a small hole was carefully made in the posterior globe of the eye right below the optic nerve to allow the fixative to permeate to the interior of the eye and fixate the structures overnight at 4° C. The samples were washed 3 times using filtered 1×PBS pH 7.4. After washing, the posterior globe of the eye was carefully dissected down to the level of the ciliary epithelium to expose the ciliary zonule. The sample was placed in 8% BSA blocking solution for 2 hours with shaking. After blocking, MAGP1 antibodies (Sigma) diluted 1:50 in 4% BSA were added to the sample and stored at 4° C. overnight. The next day, the sample was washed 6 times using 1×PBS pH 7.4, and Alexa 488 secondary antibodies (1:200, Invitrogen) were added to the sample and incubated for 2 hours at room temperature with shaking. […]
The changes in metabolite levels in plasma were measured in I278T (+/−) healthy heterozygous control mice, untreated −/− affected homozygous control mice, and 20NHS PEG-htCBS C15S-treated −/− homozygous I278T mice. […] Levels measured beginning at 72 hours after the injection as mice were on the treatment from 2 days of age.

For “20NHS PEG-htCBS C15S: htCBS C15S PEGylated with ME-200GS PEG (20 kDa linear NHS ester-activated PEG)”, the “single dose producing maximal efficacy response” value ([1]; SC, HO mouse model) was 5 mg/kg, the “plasma levels of Hcy over time” value ([1]; single 10 mg/kg SC dose) was “remain decreased up to 72 hours” and the “liver parenchyma, light microscopy” value [2] was “regular liver architecture and minimal anizokaryosis”. For the same substance, the “eye defects (zonular fibers)” value [3] was “positive effect on the eye defects”.
